Source: US20230312610A1, “Anti-Microbial Compositions” (5D HEALTH PROTECTION GROUP LTD, priority 2020, published 2023)
≈ marks a conversion by molar mass, not a printed value.

What was measured:
[1] = tested on: P. aeruginosa (ATCC 15442); assay: MIC measurement (adapted CLSI M07-A11 broth dilution); format: cell-based; conditions: for MIC: P. aeruginosa (ATCC 15442), MHB, overnight 37° C.
Method: (§1) MIC measurements were performed using an adapted method described in the Clinical and Laboratory Standards Institute (CLSI) guidelines M07-A11. Compounds were serial diluted two-fold in Mueller Hinton Broth (MHB) in 96 well plates. A positive growth control and a negative growth control were also included in the well plates.
(§2) A colony suspension of S. aureus (ATCC 29213), P. aeruginosa (ATCC 15442) and C. albican was prepared by taking several colonies from a fresh agar plate and suspending them in MHB. The suspension was adjusted to 0.5 McFarland (~1 × 10^8 CFU/mL) and diluted 1:100. The inoculum was then added to wells at a final concentration of […]. Plates were incubated overnight at 37° C. The following day, MICs were determined as the lowest concentration that no growth could be visually observed.
(§3) An 80 mg/ml solution of T-EDTA was prepared by dissolving T-EDTA (99% pure, Acros Organics) in sterile distilled water. The pH of this solution was measured at 10.5, using a pH electrode. A 16 mg/ml solution of DTPA was prepared by dissolving DTPA (98%+ Acros Organics) in distilled water, and adjusting pH to 10.5 using the addition of sodium hydroxide.

S. aureus (ATCC 29213) = assay: as above; format: cell-based; conditions: for MIC: S. aureus (ATCC 29213), MHB, overnight 37° C.
Method: as §1, §2, §3

[2] = Concentration studies: loading of complex in aqueous solution; format: physicochemical
Method: 3.29 g silver nitrate was dissolved in 4.71 g demineralised water to produce a silver nitrate solution. 2.58 g copper sulphate pentahydrate was dissolved in 16.09 g demineralised water to produce a copper sulphate solution. Silver nitrate solution was added to the DPTA solution with vigorous stirring. […] Copper sulphate solution was added to the white dispersion.
2.39 g silver nitrate was dissolved in 4.61 g demineralised water to produce a silver nitrate solution. 2.08 g zinc sulphate monohydrate was dissolved in 15.92 g demineralised water to produce a zinc sulphate solution. […] Zinc sulphate solution was added to the white dispersion.
0.24 g silver nitrate (AgNO3) was dissolved in 3.26 g demineralised water to produce a silver nitrate solution. 0.66 g aluminium sulphate hexadecahydrate (Al2H32O28S3) was dissolved in 8.34 g demineralised water to produce an aluminium sulphate solution. […] Aluminium sulphate solution was added to the white dispersion.
Silver nitrate solution was formed by dissolving 0.24 g silver nitrate (AgNO3) in 3.26 g demineralised water.

C. albican (ATCC 10231) = assay: MIC measurement (adapted CLSI M07-A11 broth dilution); format: cell-based; conditions: MHB, overnight 37° C.
Method: as §1, §2

[3] = clear aqueous solution as prepared

| Molecule | MIC [1] | MIC (S. aureus (ATCC 29213)) | theoretical concentration of the complex in solution [2, 3] | MIC (C. albican (ATCC 10231)) | theoretical total solids concentration [2, 3] | increase in potency (MIC) compared to uncomplexed T-EDTA ([1]; P. aeruginosa, versus uncomplexed T-EDTA) | increase in potency (MIC) compared to uncomplexed T-EDTA (S. aureus (ATCC 29213); S. aureus, versus uncomplexed T-EDTA) | increase in potency (MIC) versus prior art compound Ag2Cu(EDTA) ([1]; P. aeruginosa, versus Ag2Cu(EDTA)) | increase in potency (MIC) versus prior art compound Ag2Cu(EDTA) (S. aureus (ATCC 29213); S. aureus, versus Ag2Cu(EDTA)) | total soluble solids content of the solution ([2]; clear aqueous solution of the complex as prepared) |
| --- | --- | --- | --- | --- | --- | --- | --- | --- | --- | --- |
| O=C([O-])CN(CCN(CC(=O)[O-])CC(=O)[O-])CCN(CC(=O)[O-])CC(=O)[O-].[Ag+].[Ag+].[Al+3] [Ag2Al(DTPA)] | 450 µg/mL | 370 µg/mL | 2.9% | 530 µg/mL | – | – | – | – | – | – |
| O=C([O-])CN(CCN(CC(=O)[O-])CC(=O)[O-])CCN(CC(=O)[O-])CC(=O)[O-].[Ag+].[Ag+].[Bi+3] [Ag2Bi(DTPA), Ag2Bi(DPTA)] | 94 µg/mL | 190 µg/mL | 0.02 mol/kg | 11 µg/mL | 9.7% | – | – | – | – | – |
| O=C([O-])CN(CCN(CC(=O)[O-])CC(=O)[O-])CC(=O)[O-].[Ag+].[Ag+].[Cu+2] [Ag2Cu(EDTA), reference compound] | 6 µg/mL | 98 µg/mL | – | – | – | – | – | – | – | – |
| O=C(O)CN(CCN(CC(=O)O)CC(=O)O)CCN(CC(=O)O)CC(=O)O [DTPA, diethylenetriaminepentaacetic acid, reference compound] | 2000 µg/mL (≈ 5.08 mM) | 1000 µg/mL (≈ 2.54 mM) | – | – | – | 2.5 fold | 1.25 fold | – | – | – |
| Ag3Cu(DTPA) [Ag3Cu(DPTA)] | 1.6 µg/mL | 6 µg/mL | – | – | – | – | – | approximately 4 fold | approximately 16 fold | 22.5 % w/w |
